Measurements as given in EP0162422A2, “The novel physiologically active substance foroxymithine, a process and microorganisms for its production and its use as medicament” (MICROBIAL CHEMISTRY RESEARCH FOUNDATION, priority 1984, dated 1985).

Legend:
[1] = test system: spontaneous hypertensive rats (SH rats); assay: Effect on blood pressure in spontaneous hypertensive rats after oral administration; type: in vivo
Procedure: This Example illustrates the effect of foroxymithine on blood pressure in spontaneous hypertensive rats (SH rate).
SH rats weighing 320 to 358 g were orally administered foroxymithine dihydrate as an aqueous solution at do- see of 12.5, 25 and 50 mg/kg. After the administration, blood pressure was measured at certain time intervals. Changes in blood pressure in the foroxymithine- administered group were compared with those in the control group orally administered distilled water only.

mice = assay: Acute toxicity studies in mice; type: in vivo; conditions: 800 mg/kg i.v.
From the text: Foroxymithine is therefore a low-toxicity substance.

[2] = biological target: T1, angiotensin I converting enzyme (Bos taurus, UniProt P12820); assay: Anti-angiotensin I converting enzyme activity (modified Hayakari method, hippuryl-L-histidyl-L-leucine substrate, absorbance at 382 nm); type: biochemical, bovine; conditions: material from the purification steps of Examples 2 and 3; read-out: angiotensin I converting enzyme inhibitory activity (IC50) (converted)
T1 construct: obtained from a bovine lung and partially purified; from tissue; host or cells: bovine lung
T1 sequence (P12820 29-1306): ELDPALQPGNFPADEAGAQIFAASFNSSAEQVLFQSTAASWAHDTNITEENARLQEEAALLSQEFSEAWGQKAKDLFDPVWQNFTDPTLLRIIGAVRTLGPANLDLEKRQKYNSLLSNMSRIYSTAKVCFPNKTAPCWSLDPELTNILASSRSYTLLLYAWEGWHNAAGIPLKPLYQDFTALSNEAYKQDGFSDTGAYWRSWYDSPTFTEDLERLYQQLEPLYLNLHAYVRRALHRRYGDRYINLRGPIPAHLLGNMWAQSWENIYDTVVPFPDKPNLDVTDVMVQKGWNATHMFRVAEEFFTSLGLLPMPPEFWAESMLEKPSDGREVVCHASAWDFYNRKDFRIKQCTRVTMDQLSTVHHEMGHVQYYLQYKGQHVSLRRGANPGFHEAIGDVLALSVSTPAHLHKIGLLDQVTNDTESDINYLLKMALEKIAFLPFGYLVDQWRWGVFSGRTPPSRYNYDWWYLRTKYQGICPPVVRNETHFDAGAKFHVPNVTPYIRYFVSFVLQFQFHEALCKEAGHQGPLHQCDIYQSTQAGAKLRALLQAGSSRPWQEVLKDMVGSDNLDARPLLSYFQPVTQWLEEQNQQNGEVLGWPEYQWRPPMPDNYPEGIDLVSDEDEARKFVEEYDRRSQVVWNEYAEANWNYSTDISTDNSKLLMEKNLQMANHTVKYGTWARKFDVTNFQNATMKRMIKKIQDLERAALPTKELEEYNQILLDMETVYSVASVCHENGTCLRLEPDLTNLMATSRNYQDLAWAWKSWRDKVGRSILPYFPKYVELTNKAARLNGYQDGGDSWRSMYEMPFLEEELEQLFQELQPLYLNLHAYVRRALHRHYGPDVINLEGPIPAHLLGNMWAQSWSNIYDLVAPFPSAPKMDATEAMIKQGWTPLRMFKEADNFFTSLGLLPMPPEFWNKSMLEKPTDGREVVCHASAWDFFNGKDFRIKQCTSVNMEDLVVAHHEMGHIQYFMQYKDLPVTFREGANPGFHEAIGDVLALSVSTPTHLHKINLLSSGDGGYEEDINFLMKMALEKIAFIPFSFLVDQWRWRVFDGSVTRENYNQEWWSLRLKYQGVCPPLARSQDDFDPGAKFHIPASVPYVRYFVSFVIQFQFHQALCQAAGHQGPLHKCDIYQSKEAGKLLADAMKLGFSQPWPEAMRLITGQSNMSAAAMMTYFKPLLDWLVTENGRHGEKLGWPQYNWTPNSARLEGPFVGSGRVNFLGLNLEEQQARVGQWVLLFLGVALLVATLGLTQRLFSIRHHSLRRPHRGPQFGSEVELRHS
Procedure: Follow-up of foroxymithine during the cultivation step and the purification step was performed in accordance with the determination of anti-angiotensin I converting enzyme activity by the method to be described below.
Anti-angiotensin I converting enzyme activity was determined by a modification of the angiotensin I converting enzyme determination technique described in M. Hayakari et al., Analytical Biochemistry Vol. 84, pages 361-369 (1978). Hippuryl-L-histidyl-L-leucine as a substrate was dissolved at a concentration of 5 mg/ml in Tris-hydrochloride buffer (0.5M, pH 8.0) containing 0.3M sodium chloride. 0.40 ml of a solution containing a test material was added to 0.05 ml of the resulting solution. The mixture was heated at 37'C for 3 minutes. Then, 0.05 ml of a solution containing angiotensin I converting enzyme that had been obtained from a bovine lung and partially purified was added, and the mixture was reacted for 30 minutes at 37.C. […] After the system was allowed to stand for 15 minutes at room temperature, its absorbance (termed absorbance (a)) at 382 nm was measure. […] The reaction system as the control was measured for absorbance, which was termed absorbance (b). The angiotensin I converting enzyme inhibition rate (%) was calculated from the equation (b-a)/b x 100. […]

[3] = oral dose 12.5 mg/kg, 1 hour after administration
[4] = oral dose 12.5 mg/kg, 3 hours after administration
[5] = oral dose 12.5 mg/kg, 6 hours after administration
[6] = oral dose 12.5 mg/kg, 24 hours after administration
[7] = oral dose 50.0 mg/kg, 1 hour after administration
[8] = oral dose 50.0 mg/kg, 3 hours after administration
[9] = oral dose 50.0 mg/kg, 6 hours after administration
[10] = oral dose 50.0 mg/kg, 24 hours after administration

Which results are given for `CC(=O)NC(CCCN(O)C=O)C(=O)NC(CO)C(=O)N(O)CCCC1NC(=O)C(CCCN(O)C=O)NC1=O` (stereo not drawn) [Foroxymithine dihydrate, foroxymithine]?
Mean blood pressure ± S.D. [1, 3]: 180 ± 0.7 mmHg; decrease in blood pressure [1, 3]: 14.3%; Mean blood pressure ± S.D. [1, 4]: 190 ± 28.2 mmHg; decrease in blood pressure [1, 4]: 9.5%; Mean blood pressure ± S.D. [1, 5]: 200 ± 14.1 mmHg; decrease in blood pressure [1, 5]: 4.8%; Mean blood pressure ± S.D. [1, 6]: 210 ± 14.1 mmHg; decrease in blood pressure [1, 6]: 0%; Mean blood pressure ± S.D. ([1]; oral dose 12.5 mg/kg, before administration): 210 ± 0.7 mmHg; Mean blood pressure ± S.D. [1, 7]: 160 ± 7.0 mmHg; decrease in blood pressure [1, 7]: 23.8%; Mean blood pressure ± S.D. [1, 8]: 153 ± 3.5 mmHg; decrease in blood pressure [1, 8]: 27.1%; Mean blood pressure ± S.D. [1, 9]: 193 ± 10.6 mmHg; decrease in blood pressure [1, 9]: 8.1%; Mean blood pressure ± S.D. [1, 10]: 213 ± 3.5 mmHg; decrease in blood pressure [1, 10]: -1.4%; Mean blood pressure ± S.D. ([1]; oral dose 50.0 mg/kg, before administration): 210 ± 0.0 mmHg; effect on blood pressure ([1]; spontaneous hypertensive rats (SH rats), oral, conclusion in words): lower blood pressure; deaths (acute toxicity) (mice): no deaths; IC50 [2]: 12.2 µM
